Measured values taken from patent US11805778B2, “Composition including an antimicrobial boosting agent including an amphocarboxylate and methods of increasing the antimicrobial effectiveness of a composition” (KIMBERLY-CLARK WORLDWIDE, INC., priority 2018, dated 2023).

System: B. cepacia (ATCC 25416)
Test: Minimum Effective Concentration (MEC) Test Method
Assay type: cell-based, Burkholderia cepacia
Conditions: for MEC of antimicrobial agent Lactic Acid (Purac FCC 88) / MEC of antimicrobial agent Sodium Benzoate / MEC of antimicrobial agent Caprylhydroxamic Acid (Zeastat) / MEC of antimicrobial agent Hydroxyacetophenone (SymSave H): B. cepacia, 24 hours; for performance as antimicrobial boosting agent: summary in words of the MEC testing of Table 1
Protocol: Initial testing was conducted to screen a variety of surfactants in researching for potential antimicrobial boosting agents. The initial testing followed the methodology as described in the Minimum Effective Concentration (“MEC”) Test Method described in the Test Methods section herein. To summarize, the MEC testing paired a variety of potential antimicrobial boosting agents with a variety of known antimicrobial agents to determine the MEC of the respective antimicrobial agent that must be used to provide an effective antimicrobial result, as described in further detail in the Test Methods section. The more positive the boosting characteristics of an antimicrobial boosting agent, then the lower the MEC that would be required for the paired antimicrobial agent. It is to be noted that the molarities listed in Table 1 are approximate values that were calculated based on the estimated activities of the ingredients and the molecular weights of the active ingredients. In instances where an exact activity was not available for an ingredient blend, the ingredient blend activity was estimated as the average of the upper and lower limits of the specification provided by the manufacturer of such blend. In instances where an exact molecular weight could not be calculated (for example, in compounds derived from a natural oil like coconut oil), the molecular weight of the active was estimated based on a weighted average of the molecular weights of the constituent species.
The Minimum Effective Concentration Test Method discussed herein began by adding B. cepacia (ATCC 25416) culture at a final concentration of approximately 5×10^6 CFU/mL to the composition to be challenged. The challenged composition was then allowed to incubate at room temperature for 24 hours. After 24 hours, a preservative neutralizing broth was added to the mixture and measurements were subsequently taken to determine the concentration of B. cepacia still remaining after exposure to the test composition.
The Minimum Effective Concentration was determined by completing the process described above on a series of compositions with the same concentration of antimicrobial boosting agent, but with different concentrations of antimicrobial agent. The Minimum Effective Concentration of antimicrobial agent for any given value of antimicrobial boosting agent was defined as the minimum concentration of antimicrobial agent required to reduce the concentration of B. cepacia to a level below the detection threshold for the test method, which was approximately 100 CFU/mL. In instances where multiple rounds of Minimum Effective Concentration testing were completed, the value reported is the mean of the Minimum Effective Concentration values generated by each individual series of tests.

[1] = paired with the labelled potential boosting agent at 5 mmol/L
[2] = no antimicrobial boosting agent

Molecule | MEC of antimicrobial agent Lactic Acid (Purac FCC 88) [1] | performance as antimicrobial boosting agent | also measured
C[N+](C)(CCO)CC(O)C[N+](C)(C)CCO.[Cl-].[Cl-] [Cola Moist 200, Hydroxypropyl Bis-Hydroxyethyldimonium Chloride] | 50 mmol/L |  | 
CCCCCCCCCCCC(=O)OC(C)C(=O)OC(C)C(=O)[O-].[Na+] (centres unmarked) [Dermosoft SLL, Sodium Lauroyl Lactylate] | 30 mmol/L |  | 
CCCCCCCC[N+](C)(C)CC(=O)[O-] [Mackam BW-139, Octyl Betaine] | 40 mmol/L |  | 
CCCCCCCCCCCCCCCC[N+](C)(C)CC(=O)[O-] [Mackam CET, Cetyl Betaine] | 40 mmol/L |  | 
CC(O)C(=O)O (centres unmarked) [Purac FCC 88, Lactic Acid] |  |  | MEC of antimicrobial agent Lactic Acid (Purac FCC 88) [2]: 60 mmol/L
O=C([O-])c1ccccc1.[Na+] [Sodium Benzoate] |  |  | MEC of antimicrobial agent Sodium Benzoate [2]: 7.5 mmol/L
CCCCCCCC[N+](C)(C)[O-] [Techmine 280, Octyldimethylamine Oxide] | 40 mmol/L |  | 
CCCCCCCC(=O)NO [Zeastat, Caprylhydroxamic Acid] |  |  | MEC of antimicrobial agent Caprylhydroxamic Acid (Zeastat) [2]: 10 mmol/L
Caprylyl/Capryl Glucoside [Plantaren 810 UP] | 60 mmol/L |  | 
Cocamide DIPA [Cola Liquid DC] | Unstable | did not perform well as antimicrobial boosting agents | MEC of antimicrobial agent Hydroxyacetophenone (SymSave H) [1]: 20 mmol/L
Cocamidopropyl Betaine [Dehyton PK-45] |  |  | MEC of antimicrobial agent Sodium Benzoate [1]: >15 mmol/L
Coco-Glucoside [Plantacare 818 UP] | >60 mmol/L | did not perform well as antimicrobial boosting agents | 
Disodium Capryloamphodiacetate [Sopalteric DSCYA-27] | 30 mmol/L | provided at least some antimicrobial boosting effect | 
Disodium Cocoamphodiacetate [Mackam 2C-75] | 30 mmol/L | provided at least some antimicrobial boosting effect | MEC of antimicrobial agent Caprylhydroxamic Acid (Zeastat) [1]: 4 mmol/L; MEC of antimicrobial agent Hydroxyacetophenone (SymSave H) [1]: 10 mmol/L; MEC of antimicrobial agent Sodium Benzoate [1]: 2.5 mmol/L
Disodium Cocoamphodipropionate [Mackam 2CSF-40CG] | <10 mmol/L | provided at least some antimicrobial boosting effect | MEC of antimicrobial agent Caprylhydroxamic Acid (Zeastat) [1]: 6 mmol/L; MEC of antimicrobial agent Hydroxyacetophenone (SymSave H) [1]: 10 mmol/L; MEC of antimicrobial agent Sodium Benzoate [1]: 2.5 mmol/L
Disodium PEG-12 Dimethicone Sulfosuccinate [Mackanate Ultra Si] | 40 mmol/L |  | 
Laureth-3 Phosphate [Dermalcare MAP L-130] | 40 mmol/L |  | 
Lauryl Glucoside [Plantaren 1200 N UP] | >30 mmol/L |  | MEC of antimicrobial agent Sodium Benzoate [1]: 10 mmol/L
PEG-40 Hydrogenated Castor Oil [Tagat CH40] | >60 mmol/L | did not perform well as antimicrobial boosting agents | MEC of antimicrobial agent Caprylhydroxamic Acid (Zeastat) [1]: 10 mmol/L; MEC of antimicrobial agent Hydroxyacetophenone (SymSave H) [1]: >20 mmol/L
PEG-80 Sorbitan Laurate [Alkamuls PSML-80/72LD] | 50 mmol/L |  | 
Polysorbate 20 [Eumulgin SML-20] | 50 mmol/L | did not perform well as antimicrobial boosting agents | MEC of antimicrobial agent Caprylhydroxamic Acid (Zeastat) [1]: 10 mmol/L; MEC of antimicrobial agent Hydroxyacetophenone (SymSave H) [1]: >20 mmol/L; MEC of antimicrobial agent Sodium Benzoate [1]: 5 mmol/L
Sodium Cocoamphoacetate [ColaTeric 1C] | 30 mmol/L |  | MEC of antimicrobial agent Hydroxyacetophenone (SymSave H) [1]: 15 mmol/L
Sodium Cocoamphoacetate [Mackam HPC-32L] | 40 mmol/L |  | 
Sodium Cocoamphopropionate [Rewoteric AM KSF 40] | <10 mmol/L |  | MEC of antimicrobial agent Caprylhydroxamic Acid (Zeastat) [1]: 4 mmol/L; MEC of antimicrobial agent Hydroxyacetophenone (SymSave H) [1]: 10 mmol/L; MEC of antimicrobial agent Sodium Benzoate [1]: 1.8 mmol/L
Sodium Cocoyl Isethionate [Hostapon SCI 85 P] | 50 mmol/L | did not perform well as antimicrobial boosting agents | 
Sodium Lauroamphoacetate [Sopalteric SLA-32] | 20 mmol/L | provided at least some antimicrobial boosting effect | 
Sodium Laurylglucosides Hydroxypropylsulfonate [Suga Nate 160] | >50 mmol/L |  | 
Sodium Methyl Cocoyl Taurate [Hostapon CT Paste] |  |  | MEC of antimicrobial agent Sodium Benzoate [1]: 2.5 mmol/L
sodium cocoamphoacetate |  | provided at least some antimicrobial boosting effect | 
sodium cocoamphodipropionate |  | provided at least some antimicrobial boosting effect | 
